Among the data in patent US6977260B2, “Piperidinyl prostaglandin E analogs” (Allergan, Inc., priority 2004, dated 2005) are EC50 values, retold here.

Common to all, as to format: cell-based
Holding throughout (conditions): HEK-293-EBNA stable transfectants

Experiment [1] addresses T1, hTP (Homo sapiens, UniProt P21731).
T1 construct: expressed in transfected cells; host or cells: HEK-293-EBNA
T1 sequence (P21731 1-343): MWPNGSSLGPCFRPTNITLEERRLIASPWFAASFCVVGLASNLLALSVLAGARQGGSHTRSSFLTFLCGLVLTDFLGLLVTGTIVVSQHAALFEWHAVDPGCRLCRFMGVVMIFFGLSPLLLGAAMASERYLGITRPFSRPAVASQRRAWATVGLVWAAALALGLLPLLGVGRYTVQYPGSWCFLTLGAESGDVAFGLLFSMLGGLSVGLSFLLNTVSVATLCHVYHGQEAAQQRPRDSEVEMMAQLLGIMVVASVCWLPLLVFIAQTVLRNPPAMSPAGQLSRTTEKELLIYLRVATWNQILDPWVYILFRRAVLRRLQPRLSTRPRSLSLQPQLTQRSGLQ
As to the kind of experiment: Functional data, human recombinant TP receptor stable transfectants. Here is the method:
(§1) Human Recombinant EP1, EP2, EP3, EP4, FP, TP, IP and DP Receptors: Stable Transfectants.
(§2) Plasmids encoding the human EP1, EP2, EP3, EP4, FP, TP, IP and DP receptors were prepared by cloning the respective coding sequences into the eukaryotic expression vector pCEP4 (Invitrogen). The pCEP4 vector contains an Epstein Barr virus (EBV) origin of replication, which permits episomal replication in primate cell lines expressing EBV nuclear antigen (EBNA-1). It also contains a hygromycin resistance gene that is used for eukaryotic selection. The cells employed for stable transfection were human embryonic kidney cells (HEK-293) that were transfected with and express the EBNA-1 protein. These HEK-293-EBNA cells (Invitrogen) were grown in medium containing Geneticin (G418) to maintain expression of the EBNA-1 protein. HEK-293 cells were grown in DMEM with 10% fetal bovine serum (FBS), 250 μg ml^−1 G418 (Life Technologies) and 200 μg ml^−1 gentamicin or penicillin/streptomycin.
(§3) For transfection, the cells were grown to 50-60% confluency on 10 cm plates. The plasmid pCEP4 incorporating cDNA inserts for the respective human prostanoid receptor (20 μg) was added to 500 μl of 250 mM CaCl2. HEPES buffered saline×2 (2×HBS, 280 mM NaCl, 20 mM HEPES acid, 1.5 mM Na2 HPO4, pH 7.05-7.12) was then added dropwise to a total of 500 μl, with continuous-vortexing at room temperature. After 30 min, 9 ml DMEM were added to the mixture. The DNA/DMEM/calcium phosphate mixture was then added to the cells, which had been previously rinsed with 10 ml PBS. The cells were then incubated for 5 hr at 37° C. in humidified 95% air/5% CO2. The calcium phosphate solution was then removed and the cells were treated with 10% glycerol in DMEM for 2 min. The glycerol solution was then replaced by DMEM with 10% FBS. The cells were incubated overnight and the medium was replaced by DMEM/10% FBS containing 250 μg ml^−1 G418 and penicillin/streptomycin. The following day hygromycin B was added to a final concentration of 200 μg ml^−1.
(§4) Ten days after transfection, hygromycin B resistant clones were individually selected and transferred to a separate well on a 24 well plate. At confluence each clone was transferred to one well of a 6 well plate, and then expanded in a 10 cm dish. Cells were maintained under continuous hygromycin selection until use.

Experiment [2] concerns the target T2, hEP3A (Homo sapiens, UniProt P43115).
T2 construct: expressed in transfected cells; host or cells: HEK-293-EBNA
T2 sequence (P43115 1-390): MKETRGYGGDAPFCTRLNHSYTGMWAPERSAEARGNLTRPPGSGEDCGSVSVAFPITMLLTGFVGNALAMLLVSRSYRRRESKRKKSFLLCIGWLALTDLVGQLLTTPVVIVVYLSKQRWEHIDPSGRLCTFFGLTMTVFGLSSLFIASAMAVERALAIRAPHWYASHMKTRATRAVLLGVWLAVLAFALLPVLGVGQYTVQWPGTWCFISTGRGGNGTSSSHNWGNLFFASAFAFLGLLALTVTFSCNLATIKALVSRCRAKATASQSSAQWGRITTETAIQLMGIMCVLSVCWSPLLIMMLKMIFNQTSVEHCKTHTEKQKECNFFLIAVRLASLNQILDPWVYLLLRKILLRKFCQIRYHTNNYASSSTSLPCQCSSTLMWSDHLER
As to the kind of experiment: Functional data, human recombinant EP3 receptor stable transfectants. Here is the method: as §1, §2
(§5) For transfection, the cells were grown to 50-60% confluency on 10 cm plates. The plasmid pCEP4 incorporating cDNA inserts for the respective human prostanoid receptor (20 μg) was added to 500 μl of 250 mM CaCl2. HEPES buffered saline×2 (2×HBS, 280 mM NaCl, 20 mM HEPES acid, 1.5 mM Na2 HPO4, pH 7.05-7.12) was then added dropwise to a total of 500 μl, with continuous-vortexing at room temperature. […]

Experiment [3] has as its target T3, hEP4 (Homo sapiens, UniProt P35408).
T3 construct: expressed in transfected cells; host or cells: HEK-293-EBNA
As to the kind of experiment: Functional data, human recombinant EP4 receptor stable transfectants. The procedure: as §1, §2, §3, §4

Experiment [4] has as its target T4, hEP2 (Homo sapiens, UniProt P43116).
T4 construct: expressed in transfected cells; host or cells: HEK-293-EBNA
As to the kind of experiment: Functional data, human recombinant EP2 receptor stable transfectants. The procedure:
as §1, §2, §5

Experiment [5] addresses T5, hEP1 (Homo sapiens, UniProt P34995).
T5 construct: expressed in transfected cells; host or cells: HEK-293-EBNA
T5 sequence (P34995 1-402): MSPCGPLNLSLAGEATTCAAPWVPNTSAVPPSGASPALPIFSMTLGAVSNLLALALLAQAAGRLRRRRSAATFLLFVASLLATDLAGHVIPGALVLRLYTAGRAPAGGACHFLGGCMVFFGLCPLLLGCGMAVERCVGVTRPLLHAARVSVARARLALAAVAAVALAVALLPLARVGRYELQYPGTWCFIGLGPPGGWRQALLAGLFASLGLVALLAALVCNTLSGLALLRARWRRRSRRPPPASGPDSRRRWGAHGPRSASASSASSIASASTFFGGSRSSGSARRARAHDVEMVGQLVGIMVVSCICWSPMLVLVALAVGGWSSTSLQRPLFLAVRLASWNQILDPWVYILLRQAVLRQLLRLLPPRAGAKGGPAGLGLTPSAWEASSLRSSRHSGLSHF
As to the kind of experiment: Functional data, human recombinant EP1 receptor stable transfectants. Here is the method:
as §1, §2, §5

A word on the EC50: it is the concentration needed to bring the measured effect to its halfway point.

T3 sequence (P35408 whole entry): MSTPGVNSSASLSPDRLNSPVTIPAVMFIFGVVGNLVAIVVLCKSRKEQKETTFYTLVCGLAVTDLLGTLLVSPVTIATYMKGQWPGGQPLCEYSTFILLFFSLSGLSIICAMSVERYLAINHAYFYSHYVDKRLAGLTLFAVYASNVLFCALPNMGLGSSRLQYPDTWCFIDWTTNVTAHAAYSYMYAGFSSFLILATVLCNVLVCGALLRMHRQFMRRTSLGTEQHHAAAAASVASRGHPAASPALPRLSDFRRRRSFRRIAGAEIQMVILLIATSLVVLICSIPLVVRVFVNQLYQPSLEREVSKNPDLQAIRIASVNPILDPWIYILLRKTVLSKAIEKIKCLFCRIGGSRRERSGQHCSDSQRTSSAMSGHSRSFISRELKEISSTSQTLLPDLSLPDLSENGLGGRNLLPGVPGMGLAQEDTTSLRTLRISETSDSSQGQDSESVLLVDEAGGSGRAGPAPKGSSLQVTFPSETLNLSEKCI
T4 sequence (P43116 whole entry): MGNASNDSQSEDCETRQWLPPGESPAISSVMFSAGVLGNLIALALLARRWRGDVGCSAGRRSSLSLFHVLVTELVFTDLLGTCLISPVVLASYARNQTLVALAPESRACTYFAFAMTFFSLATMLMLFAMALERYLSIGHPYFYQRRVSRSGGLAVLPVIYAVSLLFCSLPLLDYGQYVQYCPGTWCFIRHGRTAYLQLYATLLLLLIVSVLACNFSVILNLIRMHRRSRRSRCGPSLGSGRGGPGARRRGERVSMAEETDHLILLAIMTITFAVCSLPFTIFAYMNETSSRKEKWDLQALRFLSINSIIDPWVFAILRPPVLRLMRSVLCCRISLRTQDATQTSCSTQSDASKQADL

For the molecule `COC(=O)COCCCCN1C(=O)CCC[C@@H]1/C=C/C(=O)Cc1ccccc1` [Example 1, {4-[(R)-2-Oxo-6-((E)-3-oxophenyl-but-1-enyl)-piperidin-1-yl]-butoxy}-Acetic acid methyl ester], the EC50 in experiment [1] is more than 10000 nM.

Turning to `O=C(O)COCCCCN1C(=O)CCC[C@@H]1/C=C/C(=O)Cc1ccccc1` [Example 2, {4-[(R)-2-Oxo-6-((E)-3-oxo-4-phenyl-but-1-enyl)-piperidin-1-yl]-butoxy}-acetic acid], the EC50 is more than 10000 nM in experiment [2], 2260 nM in experiment [1] and 300 nM in experiment [3].

In the case of `COC(=O)COCCCCN1C(=O)CCC[C@@H]1/C=C/C(O)Cc1ccccc1` (stereo partly drawn) [Example 3, {4-[(R)-2-((E)-3-Hydroxy-4-phenyl-but-1-enyl)-6-oxo-piperidin-1-yl]-butoxy}-acetic acid methyl ester], the EC50 in experiment [3] came to 1100 nM.

As for `O=C(O)COCCCCN1C(=O)CCC[C@@H]1/C=C/C(O)Cc1ccccc1` (stereo partly drawn) [Example 4, {4-[(R)-2-((E)-3-Hydroxy-4-phenyl-but-1-enyl)-6-oxo-piperidin-1-yl]-butoxy}-acetic acid], in experiment [3], the EC50 was determined as 145 nM.

Take `COC(=O)COCCCCN1C(=O)CCC[C@@H]1CCC(O)Cc1ccccc1` (stereo partly drawn) [Example 5, {4-[(R)-2-(3-Hydroxy-4-phenyl-butyl)-6-oxo-piperidin-1-yl]-butoxy}-acetic acid methyl ester]: the EC50 in experiment [2] and in experiment [3] was more than 10000 nM each time.

Take `O=C(O)COCCCCN1C(=O)CCC[C@@H]1CCC(O)Cc1ccccc1` (stereo partly drawn) [Example 6, {4-[(R)-2-(3-Hydroxy-4-phenyl-butyl)-6-oxo-piperidin-1-yl]-butoxy}-acetic acid]: the EC50 in experiment [3] is more than 10000 nM.

In the case of `O=C(O)COC/C=C\CN1C(=O)CCC[C@@H]1/C=C/C(=O)Cc1ccccc1` [Example 8, {(Z)-4-[(R)-2-Oxo-6-((E)-3-oxo-4-phenyl-but-1-enyl)-piperidin-1-yl]-but-2-enyloxy}-acetic acid], the EC50 was more than 10000 nM in experiment [1] and 2560 nM in experiment [3].

For `COC(=O)COCCCCN1C(=O)CCC[C@@H]1CCC(=O)Cc1ccccc1` [Example 9, {4-[(R)-2-Oxo-6-(3-oxo-4-phenyl-butyl)-piperidin-1-yl]-butoxy}-acetic acid methyl ester], the EC50 in experiment [3] was determined as 7540 nM.

Take `O=C(O)COCCCCN1C(=O)CCC[C@@H]1CCC(=O)Cc1ccccc1` [Example 10, {4-[(R)-2-Oxo-6-(3-oxo-4-phenyl-butyl)-piperidin-1-yl]-butoxy}-acetic acid]: the 50% effective concentration (EC50) is more than 10000 nM in experiment [1] and 1970 nM in experiment [3].

In the case of `O=C(O)COC/C=C\CN1C(=O)CCC[C@@H]1/C=C/C(O)Cc1ccccc1` (stereo partly drawn) [Example 12, {(Z)-4-[(R)-2-((E)-3-Hydroxy-4-phenyl-but-1-enyl)-6-oxo-piperidin-1-yl]-but-2-enyloxy}-acetic acid], in experiment [3], the EC50 is more than 10000 nM.

In the case of `O=C(O)COC/C=C\CN1C(=O)CCC[C@@H]1CCC(=O)Cc1ccccc1` [Example 14, {(Z)-4[(R)-2-Oxo-6-(3-oxo-4-phenyl-butyl)-piperidin-1-yl]-but-2-enyloxy}-acetic acid], the EC50 in experiment [1] and in experiment [3] was more than 10000 nM throughout.

In the case of `O=C(O)COC/C=C\CN1C(=O)CCC[C@@H]1CCC(O)Cc1ccccc1` (stereo partly drawn) [Example 16, {(Z)-4-[(R)-2-(3-Hydroxy-4-phenyl-butyl)-6-oxo-piperidin-1-yl]-but-2-enyloxy}-acetic acid], the EC50 in experiment [3] is more than 10000 nM.

Consider `O=C(O)COCCCCN1C(=O)CCC[C@@H]1/C=C/C(O)Cc1cccc(Cl)c1` (stereo partly drawn) [Example 17, (4-{(R)-2-[(E)4(3-Chlorophenyl)-3-hydroxy-but-1-enyl]-6-oxo-piperidin-1-yl}-butoxy)-acetic acid], for which the EC50 in experiment [4] and in experiment [5] was more than 10000 nM in each case.

On to `NC(=O)COCCCCN1C(=O)CCC[C@@H]1/C=C/C(O)Cc1cccc(Cl)c1` (stereo partly drawn) [Example 18, 2-(4-{(R)-2-[(E)-4-(3-Chlorophenyl)-3-hydroxy-but-1 enyl]-6-oxo-piperidin-1-yl}-butoxy)-acetamide], for which, in experiment [1], the EC50 is more than 10000 nM.
